Common to all, as to assay: cyclic AMP bioassay (ECL) in CHO-K1 cells
Holding throughout (assay type): cell-based

Test [1] deals with T1, hMC4-R (Homo sapiens, UniProt P32245).
T1 construct: expressed in transfected cells; host or cells: CHO-K1

The target of test [2] is T2, hMC5-R (Homo sapiens, UniProt P33032).
T2 construct: expressed in transfected cells; host or cells: CHO-K1

Test [3] deals with T3, hMC1-R (Homo sapiens, UniProt Q01726).
T3 construct: expressed in transfected cells; host or cells: CHO-K1
T3 sequence (Q01726 whole entry): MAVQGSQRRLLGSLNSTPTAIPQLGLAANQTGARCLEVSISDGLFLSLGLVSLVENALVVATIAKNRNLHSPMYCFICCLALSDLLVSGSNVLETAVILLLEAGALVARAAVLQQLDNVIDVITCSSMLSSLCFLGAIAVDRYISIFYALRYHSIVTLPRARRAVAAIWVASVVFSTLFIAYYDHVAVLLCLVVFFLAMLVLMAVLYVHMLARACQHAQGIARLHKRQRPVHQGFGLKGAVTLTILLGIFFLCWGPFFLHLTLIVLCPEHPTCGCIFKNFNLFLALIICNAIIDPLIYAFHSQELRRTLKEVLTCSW

The target in test [4] is T4, hMC3-R (Homo sapiens, UniProt P41968).
T4 construct: expressed in transfected cells; host or cells: CHO-K1
T4 sequence (P41968 whole entry): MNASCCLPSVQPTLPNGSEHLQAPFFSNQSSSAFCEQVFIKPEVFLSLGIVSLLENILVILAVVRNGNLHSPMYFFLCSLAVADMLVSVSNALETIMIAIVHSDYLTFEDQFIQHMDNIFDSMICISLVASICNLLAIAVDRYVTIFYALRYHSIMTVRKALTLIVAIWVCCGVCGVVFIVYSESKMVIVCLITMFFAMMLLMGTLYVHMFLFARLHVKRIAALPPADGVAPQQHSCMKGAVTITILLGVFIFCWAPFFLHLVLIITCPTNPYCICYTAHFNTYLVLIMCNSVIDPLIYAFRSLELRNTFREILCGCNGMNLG

Where [5] appears, read: Table 9A/9B, read-out: EC50 hMC4-R.
The mark [6] stands for this setting: Table 9A/9B, read-out: EC50 hMC5-R.
Where [7] appears, read: Table 9A/9B, read-out: EC50 hMC1-R.
[8] abbreviates: Table 9A/9B, read-out: EC50 hMC3-R.

17 compounds from patent US20120135923A1, “Use of Melanocortins to Treat Dyslipidemia” (IPSEN PHARMA, S.A.S., priority 2009, published 2012) can be followed below.

The structures appear in SMILES notation. Read-outs that look alike come from different tables or passages of the source. Bridge positions count the residues as written; N and C are the ends. Square brackets hold non-standard residues; d marks the D form. Peptide text beside a SMILES is read from it. d2Nal = N[C@H](Cc1ccc2ccccc2c1)C(=O)O; Bta = N[C@@H](Cc1csc2ccccc12)C(=O)O; Pen = CC(C)(S)[C@H](N)C(=O)O; Nle = CCCC[C@H](N)C(=O)O; GABA = NCCCC(=O)O; βAla = NCCC(=O)O

As usually defined, the EC50 is the concentration at which the effect is half-maximal.

T1 sequence (P32245 whole entry): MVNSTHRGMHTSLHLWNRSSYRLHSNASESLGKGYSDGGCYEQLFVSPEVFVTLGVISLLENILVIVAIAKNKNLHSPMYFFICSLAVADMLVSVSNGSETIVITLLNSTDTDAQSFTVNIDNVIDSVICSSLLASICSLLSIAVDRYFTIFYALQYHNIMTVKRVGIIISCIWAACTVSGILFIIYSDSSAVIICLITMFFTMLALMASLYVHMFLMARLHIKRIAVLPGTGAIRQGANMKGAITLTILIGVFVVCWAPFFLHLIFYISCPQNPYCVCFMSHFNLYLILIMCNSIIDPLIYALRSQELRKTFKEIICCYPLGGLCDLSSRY
T2 sequence (P33032 whole entry): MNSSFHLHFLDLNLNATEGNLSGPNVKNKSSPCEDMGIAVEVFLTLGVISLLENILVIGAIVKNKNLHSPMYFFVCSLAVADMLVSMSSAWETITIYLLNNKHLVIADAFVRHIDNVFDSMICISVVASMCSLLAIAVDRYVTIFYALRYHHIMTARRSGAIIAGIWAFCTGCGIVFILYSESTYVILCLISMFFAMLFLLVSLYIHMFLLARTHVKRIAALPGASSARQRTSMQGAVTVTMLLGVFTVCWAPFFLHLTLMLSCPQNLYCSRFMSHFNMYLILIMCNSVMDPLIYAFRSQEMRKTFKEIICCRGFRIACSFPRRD

Regarding `N=C(N)NCCC[C@@H]1NC(=O)[C@@H](Cc2ccccc2)NC(=O)[C@H](Cc2c[nH]cn2)NC(=O)[C@H](CCC(=O)O)NC(=O)[C@@H](NC(=O)CN2C(=O)N[C@@H](CCCNC(=N)N)C2=O)CSSC[C@@H](C(N)=O)NC(=O)[C@H](Cc2c[nH]c3ccccc23)NC1=O` [Hydantoin(C(O)-(Arg-Gly))-c(Cys-Glu-His-D-Phe-Arg-Trp-Cys)-NH2], the half-maximal effective concentration (EC50) in test [1] (Table 11, read-out: EC50 hMC4) stood at 0.0979 nM; in test [2] (Table 11, read-out: EC50 hMC5) it was 4010 nM; in test [3] (Table 11, read-out: EC50 hMC1), 8.83 nM; in test [4] (Table 11, read-out: EC50 hMC3), 7.86 nM.

Consider `CCCC[C@H](NC(C)=O)C(=O)N[C@@H]1C(=O)N[C@H](C)C(=O)N[C@@H](Cc2c[nH]cn2)C(=O)N[C@H](Cc2ccccc2)C(=O)N[C@@H](CCCNC(=N)N)C(=O)N[C@@H](Cc2c[nH]c3ccccc23)C(=O)N[C@H](C(N)=O)CSSC1(C)C` [Ac-Nle-c(Pen-D-Ala-His-D-Phe-Arg-Trp-Cys)-NH2], for which the concentration for a half-maximal effect (EC50) in test [1] turned out to be 0.531 nM; in test [4], 1.89 nM.

In the case of `C[C@@H]1NC(=O)N(CC(=O)N[C@H]2CSSC[C@@H](C(N)=O)NC(=O)[C@H](Cc3c[nH]c4ccccc34)NC(=O)[C@H](CCCNC(=N)N)NC(=O)[C@@H](Cc3ccccc3)NC(=O)[C@H](Cc3cnc[nH]3)NC(=O)[C@@H](C)NC2=O)C1=O` [Hydantoin(C(O)-(Ala-Gly))-c(Cys-D-Ala-His-D-Phe-Arg-Trp-Cys)-NH2], the EC50 was 0.241 nM in test [1], 516 nM in test [2] and 2.23 nM in test [4].

Take `CCCC[C@H](NC(C)=O)C(=O)N[C@H]1CC(=O)NCCCC[C@@H](C(N)=O)NC(=O)[C@H](C)NC(=O)[C@H](Cc2c[nH]c3ccccc23)NC(=O)[C@H](CCCNC(=N)N)NC(=O)[C@@H](Cc2ccc3ccccc3c2)NC(=O)[C@H](Cc2c[nH]cn2)NC1=O` [Ac-Nle-c(Asp-His-D-2-Nal-Arg-Trp-Ala-Lys)-NH2]: the 50% effective concentration (EC50) in test [3] (Table 9C/9D, read-out: EC50 hMC1-R) came out at 0.619 nM.

For the compound `CC(=O)N[C@@H](CCCNC(=N)N)C(=O)N[C@H]1CSSC[C@@H](C(N)=O)NC(=O)[C@H](Cc2c[nH]c3ccccc23)NC(=O)[C@H](CCCNC(=N)N)NC(=O)[C@@H](Cc2ccc3ccccc3c2)NC(=O)[C@H](Cc2c[nH]cn2)NC(=O)[C@@H](C)NC1=O` [Ac-Arg-c(Cys-D-Ala-His-D-2-Nal-Arg-Trp-Cys)-NH2], the Kb was found to be 1.58 nM in test [1] and 5.72 nM in test [4]. Besides, the EC50 in test [2] was 1110 nM; in test [3], 193 nM.

For the compound `CC(=O)N[C@H]1CSSC[C@@H](C(=O)N2CCC[C@H]2C(=O)N2CCC[C@H]2C(=O)N[C@@H](CCCCN)C(=O)N[C@@H](CC(=O)O)C(=O)NCCC(=O)N[C@@H](Cc2ccc(O)cc2)C(=O)NCC(=O)N[C@@H](CCCNC(=N)N)C(=O)N[C@@H](CCCNC(=N)N)C(=O)N[C@@H](CCCNC(=N)N)C(=O)N[C@@H](CCCNC(=N)N)C(=O)N[C@@H](CCCNC(=N)N)C(=O)N[C@@H](CCC(N)=O)C(=O)N[C@@H](CCCNC(=N)N)C(=O)N[C@@H](CCCNC(=N)N)C(=O)N[C@@H](CCCNC(=N)N)C(N)=O)NC(=O)[C@H](C)NC(=O)[C@H](Cc2csc3ccccc23)NC(=O)[C@H](CCCNC(=N)N)NC(=O)[C@@H](Cc2ccc3ccccc3c2)NC(=O)[C@H](Cc2c[nH]cn2)NC(=O)[C@H](CCC(=O)O)NC1=O` (Ac-CEH[d2Nal]R[Bta]ACPPKD[βAla]YGRRRRRQRRR-NH2; disulfide 1-8), the figures for the Kb in test [1] and in test [4] were 28.4 nM and 44.6 nM, respectively. Also, the concentration for a half-maximal effect (EC50) in test [2] turned out to be 879 nM; in test [3] it was 114 nM.

As for `CCCC[C@H](NC(C)=O)C(=O)N[C@H]1CSSC[C@@H](C(N)=O)NC(=O)[C@H](Cc2c[nH]c3ccccc23)NC(=O)[C@H](CCCNC(=N)N)NC(=O)[C@@H](Cc2ccccc2)NC(=O)[C@H](Cc2c[nH]cn2)NC(=O)[C@@H](CC(C)C)NC1=O` [Ac-Nle-c(Cys-D-Leu-His-D-Phe-Arg-Trp-Cys)-NH2], the EC50 in test [1] (setting [5]) turned out to be 0.0915 nM; in test [2] (setting [6]), 78.5 nM; in test [3] (setting [7]) it was 3.24 nM; in test [4] (setting [8]), 0.465 nM.

`CCCC[C@@H]1NC(=O)N(CC(=O)N[C@H]2CSSC(C)(C)[C@@H](C(N)=O)NC(=O)[C@H](Cc3c[nH]c4ccccc34)NC(=O)[C@H](CCCNC(=N)N)NC(=O)[C@@H](Cc3ccccc3)NC(=O)[C@H](Cc3cnc[nH]3)NC(=O)[C@@H](C)NC2=O)C1=O` [Hydantoin(C(O)-(Nle-Gly))-c(Cys-D-Ala-His-D-Phe-Arg-Trp-Pen)-NH2]: the concentration giving a half-maximal response (EC50) in test [1] came out at 0.584 nM; in test [2] it was 352 nM; in test [3], 17 nM; in test [4] it was 21.5 nM.

In the case of `CC(=O)N[C@H]1CSSC[C@@H](C(=O)N2CCC[C@H]2C(=O)N2CCC[C@H]2C(=O)N[C@@H](CCCCN)C(=O)N[C@@H](CC(=O)O)C(=O)NCCC(=O)N[C@@H](CCCNC(=N)N)C(=O)N[C@@H](CCCNC(=N)N)C(=O)N[C@@H](CCCNC(=N)N)C(=O)N[C@@H](CCCNC(=N)N)C(=O)N[C@@H](CCCNC(=N)N)C(=O)N[C@@H](CCC(N)=O)C(=O)N[C@@H](CCCNC(=N)N)C(=O)N[C@@H](CCCNC(=N)N)C(=O)N[C@@H](CCCNC(=N)N)C(N)=O)NC(=O)[C@H](C)NC(=O)[C@H](Cc2csc3ccccc23)NC(=O)[C@H](CCCNC(=N)N)NC(=O)[C@@H](Cc2ccc3ccccc3c2)NC(=O)[C@H](Cc2c[nH]cn2)NC(=O)[C@H](CCC(=O)O)NC1=O`, the Kb is 6.14 nM in test [1] and 170 nM in test [4]. The 50% effective concentration (EC50) in test [2] is 328 nM; in test [3], 52 nM.

In the case of `CCCC[C@H](NC(C)=O)C(=O)N[C@H]1CC(=O)NCCCC[C@@H](C(N)=O)NC(=O)CCCNC(=O)[C@H](Cc2c[nH]c3ccccc23)NC(=O)[C@H](CCCNC(=N)N)NC(=O)[C@@H](Cc2ccccc2)NC(=O)[C@H](Cc2c[nH]cn2)NC1=O` [Ac-Nle-c(Asp-His-D-Phe-Arg-Trp-Gaba-Lys)-NH2], the EC50 turned out to be 0.131 nM in test [1] (setting [5]), 3.48 nM in test [2] (setting [6]), 1.37 nM in test [3] (setting [7]) and 0.628 nM in test [4] (setting [8]).

With `CC(=O)N[C@@H](CCC1CCCCC1)C(=O)N[C@H]1CC(=O)NCCCC[C@@H](C(N)=O)NC(=O)CCCNC(=O)[C@H](Cc2c[nH]c3ccccc23)NC(=O)[C@H](CCCNC(=N)N)NC(=O)[C@@H](Cc2ccccc2)NC(=O)[C@H](Cc2c[nH]cn2)NC1=O` [Ac-hCha-c(Asp-His-D-Phe-Arg-Trp-Gaba-Lys)-NH2], the EC50 amounted to 7.24 nM in test [1] (setting [5]), 415 nM in test [2] (setting [6]), 2.27 nM in test [3] (setting [7]) and 3.32 nM in test [4] (setting [8]).

Regarding `CCCC[C@@H](C(=O)N[C@H]1CSSC[C@@H](C(N)=O)NC(=O)[C@H](Cc2c[nH]c3ccccc23)NC(=O)[C@H](CCCNC(=N)N)NC(=O)[C@@H](Cc2ccccc2)NC(=O)[C@H](Cc2cnc[nH]2)NC(=O)[C@@H](C)NC1=O)N1C(=O)N[C@@H](C(C)C)C1=O` [Hydantoin(C(O)-(Val-Nle))-c(Cys-D-Ala-His-D-Phe-Arg-Trp-Cys)-NH2], the figures for the EC50 in test [1] and in test [4] were 0.977 nM and 4.61 nM, respectively.

Regarding `C[C@H]1NC(=O)[C@@H](NC(=O)CN2C(=O)N[C@@H](CCCNC(=N)N)C2=O)CSSC[C@@H](C(N)=O)NC(=O)[C@H](Cc2c[nH]c3ccccc23)NC(=O)[C@H](CCCNC(=N)N)NC(=O)[C@@H](Cc2ccccc2)NC(=O)[C@H](Cc2cnc[nH]2)NC1=O` [Hydantoin(C(O)-(Arg-Gly))-c(Cys-D-Ala-His-D-Phe-Arg-Trp-Cys)-NH2], the EC50 in test [1] turned out to be 0.503 nM; in test [3], 8.81 nM; in test [4], 18.2 nM.

`CCCC[C@H](NC(C)=O)C(=O)N[C@H]1CSSC(C)(C)[C@@H](C(N)=O)NC(=O)CCCNC(=O)[C@H](Cc2c[nH]c3ccccc23)NC(=O)[C@H](CCCNC(=N)N)NC(=O)[C@@H](Cc2ccccc2)NC(=O)[C@H](Cc2c[nH]cn2)NC1=O` [Ac-Nle-c(Cys-His-D-Phe-Arg-Trp-Gaba-Pen)-NH2] (Ac-[Nle]CH[dF]RW[GABA][Pen]-NH2; disulfide 2-8): the half-maximal effective concentration (EC50) in test [1] (setting [5]) was found to be 0.028 nM; in test [2] (setting [6]), 3.9 nM; in test [3] (setting [7]), 0.28 nM; in test [4] (setting [8]) it was 0.24 nM.

Regarding `N=C(N)NCCC[C@@H]1NC(=O)[C@@H](Cc2ccccc2)NC(=O)[C@H](Cc2cnc[nH]2)NC(=O)[C@H](CCC(=O)O)NC(=O)[C@@H](NC(=O)CN2C(=O)CNC2=O)CSSC[C@@H](C(N)=O)NC(=O)[C@H](Cc2c[nH]c3ccccc23)NC1=O` [Hydantoin(C(O)-(Gly-Gly))-c(Cys-Glu-His-D-Phe-Arg-Trp-Cys)-NH2], the concentration giving a half-maximal response (EC50) in test [3] (Table 11, read-out: EC50 hMC1) was found to be 124 nM; in test [4] (Table 11, read-out: EC50 hMC3), 8.05 nM.

On to `CCCC[C@@H](C(=O)N[C@H]1CSSC[C@@H](C(N)=O)NC(=O)[C@H](Cc2c[nH]c3ccccc23)NC(=O)[C@H](CCCNC(=N)N)NC(=O)[C@@H](Cc2ccccc2)NC(=O)[C@H](Cc2cnc[nH]2)NC(=O)[C@@H](C)NC1=O)N1C(=O)N[C@@H](CC(C)C)C1=O` [Hydantoin(C(O)-(Leu-Nle))-c(Cys-D-Ala-His-D-Phe-Arg-Trp-Cys)-NH2], for which the EC50 came out at 1.83 nM in test [1] and 9.68 nM in test [4].

As for `C[C@H]1NC(=O)[C@@H](NC(=O)[C@H](CCCNC(=N)N)N2C(=O)CNC2=O)CSSC[C@@H](C(N)=O)NC(=O)[C@H](Cc2c[nH]c3ccccc23)NC(=O)[C@H](CCCNC(=N)N)NC(=O)[C@@H](Cc2ccccc2)NC(=O)[C@H](Cc2cnc[nH]2)NC1=O` [Hydantoin(C(O)-(Gly-Arg))-c(Cys-D-Ala-His-D-Phe-Arg-Trp-Cys)-NH2], the EC50 was determined as 0.599 nM in test [1], 8.85 nM in test [3] and 5.17 nM in test [4].
